Data as given in patent US20060058315A1, “2-Oxo-ethanesulfonamide derivates” (AstraZeneca AB, priority 2002, published 2006).

target: T1, human 11βHSD1 (Homo sapiens, UniProt P28845); experiment: HeLa GRE4-βGal/11βHSD1 cell reporter assay (β-galactosidase production); type: cell-based; conditions: HeLa GRE4-βGal/11βHSD1 cells, cortisone 1 μM, overnight incubation, absorbance at 570 nm
T1 construct: a construct containing full-length human 11βHSD1 enzyme (in pCMVHyg); expressed in transfected cells
T1 sequence (P28845 whole entry): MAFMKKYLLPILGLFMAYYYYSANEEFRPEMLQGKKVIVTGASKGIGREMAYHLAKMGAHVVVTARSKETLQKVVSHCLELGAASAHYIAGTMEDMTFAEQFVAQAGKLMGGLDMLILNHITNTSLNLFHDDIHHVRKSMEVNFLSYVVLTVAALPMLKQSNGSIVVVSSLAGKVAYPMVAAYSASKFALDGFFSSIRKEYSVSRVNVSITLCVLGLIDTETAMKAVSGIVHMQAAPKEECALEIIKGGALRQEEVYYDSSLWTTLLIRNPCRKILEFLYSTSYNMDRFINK
Description: HeLa cells (human cervical carcinoma derived cells) were stably transfected with a construct containing four copies of the glucocorticoid response element (GRE) linked to a beta-galactosidase reporter gene (3 kb lac Z gene derived from pSV-B-galactosidase). These cells were then further stably transfected with a construct containing full-length human 11βHSD1 enzyme (in pCMVHyg) to create GRE4-βGal/11βHSD1 cells. The principal of the assay is as follows. Cortisone is freely taken up by the cells and is converted to cortisol by 11βHSD1 oxo-reductase activity and cortisol (but not cortisone) binds to and activates the glucocorticoid receptor. Activated glucocorticoid receptor then binds to the GRE and initiates transcription and translation of β-galactosidase. Enzyme activity can then be assayed with high sensitivity by colourimetric assay.
Cells were routinely cultured in DMIM (Invitrogen, Paisley, Renfrewshire, UK) containing 10% foetal calf serum (LabTech), 1% glutamine (Invitrogen), 1% penicillin & streptomycin (Invitrogen), 0.5 mg/ml G418 (Invitrogen) & 0.5 mg/ml hygromycin (Boehringer). Assay media was phenol red free-DMEM containing 1% glutamine, 1% penicillin & streptomycin.
Compounds (1 mM) to be tested were dissolved in dimethyl sulphoxide (DMSO) and serially diluted into assay media containing […]. […]
A cocktail (25 μl) consisting of 10× Z-buffer (600 mM Na2HPO4, 400 mM NaH2PO4.2H2O, 100 mM KCl, 10 mM MgSO4.7H2O, 500 mM, β-mercaptoethanol, pH 7.0), SDS (0.2%), chlorophenol red-β-D-galactopyranoside (5 mM, Roche Diagnostics) was added per well and plates incubated at 37° C. for 3-4 hours. β-Galactosidase activity was indicated by a yellow to red colour change (absorbance at 570 nm) measured using a Tecan Spectrafluor Ultra.
The calculation of median inhibitory concentration (IC50) values for the inhibitors was performed using Origin 6.0 (Microcal Software, Northampton M A USA). Dose response curves for each inhibitor were plotted as OD units at each inhibitor concentration with relation to a maximum signal (cortisone, no compound) and IC50 values calculated. […]

Row | SMILES | IC50 [nM]
1 | CN(C)S(=O)(=O)CC(=O)c1ccccn1 [Example 2, (N,N-Dimethylsulphamoylmethyl)(pyrid-2-yl)ketone] | 72
2 | CN(C)S(=O)(=O)CC(=O)c1cnccn1 [Example 14] | 47
3 | CC(C)Oc1ccc(C(=O)CS(=O)(=O)N(C(C)C)C(C)C)cc1 [Example 75] | 60
